What was measured:
[1] = tested on: carotid artery shear stress model; assay: Carotid artery shear stress model, amount of thrombus; assay type: in vivo, Sprague-Dawley rats; details: rat; for Amount of thrombus (mg, Mean ± SEM): 25 mg/kg oral, twice a day for 3 days after operation; for shear stress-induced thrombogenesis compared with the control group: oral
Method: Vehicle (0.5% methylcellulose), clopidogrel (8 mg/kg), aspirin (50 mg/kg) or a candidate substance was orally administered to male Sprague-Dawley rats (250 to 300 g). 2 hours after administration, the rats were anesthetized by ketamine/rompun (ketamine/xylazine) cocktail 0.1 ml/100 g. Except for the normal control group, the right cervical skin of the experimental animals was incised to expose the common carotid artery. A surgical tube with a length of 1 mm and an inside diameter of 0.58 mm was inserted into the exposed carotid artery and tied with a single thread. The exposed site and the operation site were treated with an anti-adhesion agent, and then sutured for the animals to recover. After the surgery, vehicle, clopidogrel, aspirin or a candidate substance was orally administered to the rats twice a day for 3 days. On the fourth day, 2 hours after the final administration, urethane (100 mg/300 μl/100 g) was administered intraperitoneally to the rats to induce anesthesia, and the operation site was opened to separate a total of 1 cm of the blood vessel, 5 mm above and 5 mm below the surgical tube. The separated blood vessel was perfused with 0.2 ml of 0.9% saline at 0.3 ml/min to remove the remaining blood, and then maintained in 1 ml of protein lysis buffer (NaOH 2 g, Na2CO3 0.1 g in 500 ml D.W). After collected, the blood vessel thrombus was double-boiled in boiling water together with the protein lysis buffer. 200 μl of the reaction solution (10 ml bicinchoninic acid solution+200 μl 4% aqueous solution of copper sulfate) was added to 10 μl of the heated thrombus, and the mixture was reacted at 37° C. for 30 minutes and quantified with an ELISA reader (562 nm).

[2] = tested on: thrombin-induced platelet aggregation, Human PRP; assay: Thrombin-induced platelet aggregation in human PRP (lumi-aggregometer); assay type: cell-based; details: thrombin 0.6-0.8 U/ml;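 further: aggregation recorded for 5 min after thrombin addition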
Method: To investigate whether the candidate substance has inhibition selectivity for shear-stress-induced platelet aggregation, which is by a physical stimulus, […] experiment was conducted by activating platelets with physiological agonists—i.e., thrombin, collagen and ADP—to study the inhibitory effect of the candidate substance.
Human PRP (598.8 μl) was treated with 1.2 μl of the candidate substance per concentration (25, 100, 250 μM) and reacted at 37° C. for 3 minutes using a thermomixer. Then, PRP (495 μl) was put in the aggregometer cuvette and preincubated for 1 minute, followed by treatment with platelet aggregation-inducing reagent, thrombin (0.6-0.8 U/ml), collagen (2-5 μg/ml), or ADP (adenosine diphosphate, 15-20 μM) at the minimum concentration causing maximum aggregation. The degree of aggregation of the platelets was measured by a turbidity change using a lumi-aggregometer (Chrono-Log Co., USA). The turbidity of the PRP was considered as 0%, and the turbidity of the PPP was considered as 100%. During the measurement, the reaction mixture was continuously stirred at 1,000 rpm with a silicone-coated magnetic stir bar.

[3] = tested on: human vascular endothelial cells (EA.hy926); assay: Cytotoxicity in EA.hy926 cell line (MTT assay); assay type: cell-based; details: 24 hours
Method: 5-1. Evaluation of Cytotoxicity of Candidate Substances Using EA.hy926 Cell Line
Experiments were conducted to determine the cytotoxicity of candidate substances in human vascular endothelial cells (EA.hy926). EA.hy926 was passaged in DMEM (Dulbecco's […]) supplemented with 10% fetal bovine serum (FBS) at 5% CO2/37° C. The cells were cultured in a 96 well plate at 1×10^4 cells/well for 48 hours, washed twice with DMEM and then cultured for 24 hours. Candidate substances were prepared at final concentrations of 25 and 100 μM, applied to the wells at 200 μl per well and cultured for 24 hours. MTT assay was used to measure the absorbance at 570 nm after colorization in violet.

human platelets = assay: Cytotoxicity in human platelets (LDH leakage); assay type: cell-based; details: 3 min
Method: 5-2. Evaluation of Cytotoxicity of Candidate Substances Using Human Platelets
Leakage of lactate dehydrogenase (LDH) from the platelets was measured by a spectro-photometry method. 1.2 μl of the test substance was added to 598.8 μl of PRP, and the mixture was reacted at 37° C. for 3 minutes using a thermomixer. After the reaction, 100 μl of the sample was centrifuged at 12,000 g for 2 minutes, and 80 μl of the supernatant was taken and refrigerated until evaluation. The evaluation was performed within 24 hours. […] 25 μl of the sample was added to 1 ml of a pre-warmed Tris-EDTA NADH solution (56 mM Tris(hydroxymethyl) aminomethane, 5.6 mM EDTA, 0.17 mM β-NADH pH 7.4) and reacted for 5 minutes at 37° C. Then, 100 μl of a 14 mM pyruvate solution previously heated at 37° C. was added to the reaction mixture, and absorbance was immediately measured at a wavelength of 339 nm for 1 minute using a spectrophotometer (UV-Vis spectrophotometer, UV-2201, Shidamadzu, Japan). The rate of decrease in absorbance means the rate of oxidation of NADH, indicating the activity of LDH liberated from platelets. Total activity of LDH was measured by inducing lysis of platelets with 0.3% Triton X-100. The basal level of LDH (Control) was measured in plasma. The activity of each sample was measured as a percentage of the total activity of LDH.

plasma = assay: Plasma coagulation time, Activated Partial Thromboplastin Time (aPTT); assay type: biochemical; details: plasma treated 3 minutes
Method: In order to separate plasma, blood was collected with 3.2% sodium citrate as an anticoagulant. Whole blood was centrifuged at 2000 g for 20 minutes to obtain plasma. After treating the plasma with the test substances for 3 minutes, plasma coagulation time was measured. For plasma coagulation time, Activated Partial Thromboplastin Time (aPTT) and Prothrombin Time (PT) were measured using BBL® Fibrometer (Becton Dickinson, Cockeysville, Md.). For measurement of aPTT, the plasma was treated with aPTT reagents in fibrometer cup and reacted at 37° C. for 3 min. After the reaction, CaCl2 was added and blood coagulation time was measured immediately. For the measurement of PT, PT reagent was added to warmed plasma, and blood coagulation time was measured immediately. DTI, known to prolong plasma coagulation time, was used as a control.

Sprague-Dawley rats = assay: Bleeding side effect (tail bleeding time) after single oral administration; assay type: in vivo; details: rat, tail cut 1 hour after administration
Method: Male Sprague-Dawley rats (250 to 300 g) were fasted overnight and then were orally administered with the candidate substances at each concentration. After 1 hour, the rats were anesthetized by intraperitoneal injection of urethane (1.25 g/kg). The 3 mm portion of the tail tip of the rats was cut and carefully wiped every 30 seconds. Bleeding time was measured in […] until no more blood was drawn, and when the bleeding lasted longer than 30 minutes, the bleeding time was recorded as 30 minutes.

Compound | Amount of thrombus (mg, Mean ± SEM) [1] [mg] | shear stress-induced thrombogenesis compared with the control group [1] | Degree of platelet aggregation (%, Mean ± SEM) ([2]; 25 μM) [%] | Degree of platelet aggregation (%, Mean ± SEM) ([2]; 100 μM) [%] | Degree of platelet aggregation (%, Mean ± SEM) ([2]; 250 μM) [%] | Cell viability (%) ([3]; EA.hy926, 25 μM) | Cell viability (%) ([3]; EA.hy926, 100 μM) | LDH leakage (%, Mean ± SEM) (human platelets; 25 μM) [%] | LDH leakage (%, Mean ± SEM) (human platelets; 100 μM) [%] | LDH leakage (%, Mean ± SEM) (human platelets; 250 μM) [%] | plasma coagulation time - aPTT, Time (plasma; 25 μM) [s] | plasma coagulation time - aPTT, Time (plasma; 100 μM) [s] | plasma coagulation time - aPTT, Time (plasma; 250 μM) [s] | Bleeding time (Sprague-Dawley rats; 25 μM (so in the source)) [min] | Bleeding time (Sprague-Dawley rats; 100 μM (so in the source)) [min]
COc1cc(C(=O)N2CCc3sccc3C2)ccc1O [Example 12, (6,7-Dihydrothieno[3,2-c]pyridin-5(4H)-yl)(4-hydroxy-3-methoxyphenyl)methanone] | 0.069 ± 0.007 | significantly, remarkably inhibited | 99.5 ± 7.5 | 95.0 ± 12.0 | 88.5 ± 4.5 | 95.1 ± 1.9 | 97.2 ± 2.8 | 2.3 ± 0.5 | 3.6 ± 0.1 | 3.6 ± 0.8 | 24.3 ± 0.1 | 26.7 ± 1.0 | 27.2 ± 2.0 | 6.3 ± 0.6 | 6.5 ± 0.3
COc1cc(C(=O)Oc2c(C)occc2=O)ccc1O [Example 14, 2-Methyl-4-oxo-4H-pyran-3-yl 4-hydroxy-3-methoxybenzoate] | 0.066 ± 0.006 | significantly, remarkably inhibited | 81.3 ± 2.5 | 84.0 ± 0.6 | 86.0 ± 4.6 | 99.6 ± 1.7 | 99.5 ± 1.6 | 4.8 ± 0.2 | 5.6 ± 0.9 | 4.2 ± 0.9 | 27.0 ± 0.4 | 26.7 ± 0.2 | 26.3 ± 1.7 | 6.7 ± 0.9 | 6.3 ± 0.6
O=C(c1cc(O)ccc1O)N1CCc2sccc2C1 [Example 20, (6,7-Dihydrothieno[3,2-c]pyridin-5(4H)-yl)(2,5-dihydroxyphenyl)methanone] | 0.068 ± 0.005 | significantly, remarkably inhibited | 84.0 ± 3.2 | 82.3 ± 3.7 | 82.0 ± 15.0 | 99.7 ± 3.2 | 97.7 ± 2.2 | 4.1 ± 0.7 | 5.2 ± 0.4 | 3.5 ± 1.2 | 24.9 ± 1.0 | 25.3 ± 0.6 | 25.8 ± 0.9 | 6.7 ± 0.6 | 7.7 ± 0.4
COc1ccc(NC(=O)c2ccc(O)c(OC)c2)c([N+](=O)[O-])c1 [Example 15, 4-Hydroxy-3-methoxy-N-(4-methoxy-2-nitrophenyl)benzamide] | 0.070 ± 0.006 | significantly, remarkably inhibited | 95.5 ± 3.5 | 100.5 ± 4.5 | 98.0 ± 3.0 | 100.8 ± 2.5 | 94.9 ± 3.3 | 2.7 ± 0.1 | 3.2 ± 0.4 | 3.1 ± 1.3 | 26.3 ± 2.3 | 26.6 ± 1.0 | 29.3 ± 0.5 | 7.3 ± 0.7 | 6.2 ± 0.6
O=C(c1ccc(O)c(O)c1)N1CCc2sccc2C1 [Example 1, (6,7-Dihydrothieno[3,2-c]pyridin-5(4H)-yl)(3,4-dihydroxyphenyl)methanone] | 0.065 ± 0.005 | significantly, remarkably inhibited | 88.0 ± 2.1 | 88.7 ± 6.1 | 78.7 ± 1.8 | 92.2 ± 2.8 | 94.2 ± 1.9 | 2.7 ± 0.5 | 2.4 ± 0.2 | 2.7 ± 0.5 | 23.8 ± 1.9 | 24.8 ± 2.0 | 26.7 ± 0.8 | 6.0 ± 0.9 | 6.5 ± 0.9
O=C(c1cc(O)ccc1O)N1CCC(c2noc3ccc(F)cc23)CC1 [Example 23, (2,5-Dihydroxyphenyl)(4-(5-fluorobenzo[d]isoxazol-3-yl)piperidin-1-yl)methanone] | 0.071 ± 0.006 | significantly, remarkably inhibited | 96.0 ± 4.0 | 88.5 ± 6.5 | 93.5 ± 1.5 | 104.3 ± 1.8 | 99.9 ± 1.9 | 1.8 ± 0.1 | 2.2 ± 1.3 | 3.2 ± 0.5 | 26.2 ± 0.2 | 29.5 ± 1.2 | 26.1 ± 0.2 |  | 

— patent publication US10730886B2, “Compound having effect of inhibiting platelet aggregation and salt thereof, and composition for preventing or treating thrombotic diseases, containing same” (SHIN POONG PHARMACEUTICAL CO., LTD., priority 2015, dated 2020)
